Columns and labels:
[1] = biological target: Methyl-CpG-binding domain protein 4 (Homo sapiens) (UniProt O95243); details: Hit No;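 further: MBD4 activity read as fluorescence at 594 nm from cleavage and release of a quenched duplex DNA oligonucleotide, with APE1 coupled to incise the strand and raise turnover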
Description: Inhibition of MBD4 by quantifying inhibition of MBD4-mediated cleavage and dissociation of quenched duplex DNA oligonucleotides, measured as fluorescence at 594 nm. To generate a functional strand incision and increase turn-over this assay is coupled to APE1.

[2] = biological target: T1, Adenine DNA glycosylase (Homo sapiens) (UniProt Q9UIF7);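 further: human MUTYH activity read as 594 nm fluorescence from cleavage and release of a quenched DNA duplex, coupled with APE1 for strand incision, lower signal meaning inhibition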
T1 sequence (whole entry): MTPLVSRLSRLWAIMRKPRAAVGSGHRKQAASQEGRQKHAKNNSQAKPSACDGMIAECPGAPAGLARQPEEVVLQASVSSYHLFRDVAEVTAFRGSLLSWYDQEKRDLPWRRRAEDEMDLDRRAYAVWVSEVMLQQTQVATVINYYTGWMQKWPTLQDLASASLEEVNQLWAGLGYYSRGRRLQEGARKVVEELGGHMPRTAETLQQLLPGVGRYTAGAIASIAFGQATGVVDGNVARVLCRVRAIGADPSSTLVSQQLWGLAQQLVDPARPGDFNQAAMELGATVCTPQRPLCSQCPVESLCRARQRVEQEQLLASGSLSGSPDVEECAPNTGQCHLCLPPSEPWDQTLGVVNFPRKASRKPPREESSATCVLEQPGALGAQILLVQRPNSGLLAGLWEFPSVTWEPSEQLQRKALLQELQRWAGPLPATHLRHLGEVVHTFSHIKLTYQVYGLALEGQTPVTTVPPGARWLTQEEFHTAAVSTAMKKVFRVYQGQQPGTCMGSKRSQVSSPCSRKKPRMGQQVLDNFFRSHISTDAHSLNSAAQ
Description: Inhibition of MUTYH by quantifying inhibition of MUTYH-mediated cleavage and dissociation of quenched duplex DNA oligonucleotides, measured as fluorescence at 594 nm. To generate a functional strand incision and increase turn-over this assay is coupled to APE1.

[3] = biological target: Endonuclease 8-like 1 (Homo sapiens) (UniProt Q96FI4); details: Hit No;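 further: fluorescence at 594 nm from quenched duplex DNA oligonucleotides released by NEIL1 cleavage and strand separation, reported as reduction of this enzyme activity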
Chain of Endonuclease 8-like 1 (Homo sapiens) (Q96FI4 whole entry): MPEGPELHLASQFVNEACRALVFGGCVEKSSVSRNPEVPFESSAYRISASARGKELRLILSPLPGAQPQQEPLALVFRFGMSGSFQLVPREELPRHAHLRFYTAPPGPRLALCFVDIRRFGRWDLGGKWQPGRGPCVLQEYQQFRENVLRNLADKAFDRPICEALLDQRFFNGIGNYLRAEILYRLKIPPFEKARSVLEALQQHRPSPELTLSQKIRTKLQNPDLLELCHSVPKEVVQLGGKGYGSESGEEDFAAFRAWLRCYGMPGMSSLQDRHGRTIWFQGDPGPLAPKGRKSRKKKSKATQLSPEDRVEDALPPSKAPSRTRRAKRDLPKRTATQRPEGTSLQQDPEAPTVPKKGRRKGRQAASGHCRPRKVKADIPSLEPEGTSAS
Description: Inhibition of NEIL1 by quantifying inhibition of NEIL1-mediated cleavage and dissociation of quenched duplex DNA oligonucleotides, measured as fluorescence at 594 nm.

[4] = biological target: T2, Endonuclease 8-like 2 (Homo sapiens) (UniProt Q969S2);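 further: fluorescence at 594 nm reports NEIL2 cutting and release of a quenched double-stranded DNA oligo substrate, reduced signal read as inhibition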
T2 sequence (whole entry): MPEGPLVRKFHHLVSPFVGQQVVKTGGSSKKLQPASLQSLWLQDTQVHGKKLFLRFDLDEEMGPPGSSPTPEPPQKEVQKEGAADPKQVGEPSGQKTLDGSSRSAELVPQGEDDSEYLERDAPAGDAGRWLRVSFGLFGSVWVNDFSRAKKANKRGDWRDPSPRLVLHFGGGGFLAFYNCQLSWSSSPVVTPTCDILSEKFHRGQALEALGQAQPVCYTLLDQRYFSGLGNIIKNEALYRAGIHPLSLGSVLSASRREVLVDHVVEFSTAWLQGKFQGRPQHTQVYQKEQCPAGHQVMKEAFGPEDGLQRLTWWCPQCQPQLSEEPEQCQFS
Description: Inhibition of NEIL2 by quantifying inhibition of NEIL2-mediated cleavage and dissociation of quenched duplex DNA oligonucleotides, measured as fluorescence at 594 nm.

[5] = biological target: T3, Endonuclease III-like protein 1 (Homo sapiens) (UniProt P78549); details: Hit No;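 further: enzyme assay tracking NTHL1 cutting and release of a quenched double-stranded DNA oligo substrate, read as fluorescence at 594 nm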
T3 sequence (whole entry): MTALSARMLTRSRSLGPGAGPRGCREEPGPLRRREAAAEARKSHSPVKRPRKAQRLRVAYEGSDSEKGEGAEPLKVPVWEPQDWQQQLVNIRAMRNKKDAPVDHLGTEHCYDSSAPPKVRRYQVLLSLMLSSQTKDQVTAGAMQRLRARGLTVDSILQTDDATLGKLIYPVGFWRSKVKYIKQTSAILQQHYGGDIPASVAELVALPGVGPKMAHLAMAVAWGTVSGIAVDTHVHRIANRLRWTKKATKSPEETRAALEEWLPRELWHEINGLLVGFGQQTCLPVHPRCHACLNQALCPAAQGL
Description: Inhibition of NTHL1 by quantifying inhibition of NTHL1-mediated cleavage and dissociation of quenched duplex DNA oligonucleotides, measured as fluorescence at 594 nm.

[6] = biological target: N-glycosylase/DNA lyase (Homo sapiens) (UniProt O15527);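 further: OGG1 cleavage of a quenched duplex DNA oligonucleotide, coupled to APE1 for strand incision, read as fluorescence at 594 nm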
Chain of N-glycosylase/DNA lyase (Homo sapiens) (O15527 whole entry): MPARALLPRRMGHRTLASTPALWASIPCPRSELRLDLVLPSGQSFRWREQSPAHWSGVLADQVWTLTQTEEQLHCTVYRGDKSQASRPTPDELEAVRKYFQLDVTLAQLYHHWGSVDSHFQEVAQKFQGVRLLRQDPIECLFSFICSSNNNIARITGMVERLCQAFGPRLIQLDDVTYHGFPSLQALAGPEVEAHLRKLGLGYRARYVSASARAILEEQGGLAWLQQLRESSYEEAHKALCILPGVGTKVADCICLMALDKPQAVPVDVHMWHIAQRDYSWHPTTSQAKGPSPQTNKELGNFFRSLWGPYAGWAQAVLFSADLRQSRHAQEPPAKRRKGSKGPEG
Description: Inhibition of OGG1 by quantifying inhibition of OGG1-mediated cleavage and dissociation of quenched duplex DNA oligonucleotides, measured as fluorescence at 594 nm. To generate a functional strand incision and increase turn-over this assay is coupled to APE1.

[7] = biological target: T4, Single-strand selective monofunctional uracil DNA glycosylase (Homo sapiens) (UniProt Q53HV7); details: Hit No;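 further: enzymatic SMUG1 assay coupled with APE1, reading fluorescence at 594 nm released when a quenched double-stranded DNA oligonucleotide substrate is cleaved and separated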
T4 sequence (whole entry): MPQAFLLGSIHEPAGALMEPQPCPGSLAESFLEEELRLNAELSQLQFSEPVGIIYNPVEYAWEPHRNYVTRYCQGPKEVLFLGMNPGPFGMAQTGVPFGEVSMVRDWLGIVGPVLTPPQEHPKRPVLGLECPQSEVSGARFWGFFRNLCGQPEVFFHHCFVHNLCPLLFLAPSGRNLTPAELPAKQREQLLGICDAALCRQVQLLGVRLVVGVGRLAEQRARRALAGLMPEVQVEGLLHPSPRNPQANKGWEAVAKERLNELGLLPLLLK
Description: Inhibition of SMUG1 by quantifying inhibition of SMUG1-mediated cleavage and dissociation of quenched duplex DNA oligonucleotides, measured as fluorescence at 594 nm. To generate a functional strand incision and increase turn-over this assay is coupled to APE1.

[8] = biological target: G/T mismatch-specific thymine DNA glycosylase (Homo sapiens) (UniProt Q13569); details: Hit No;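 further: human TDG cleavage of quenched duplex DNA oligonucleotides coupled to APE1, strand release read as fluorescence at 594 nm, inhibition of TDG activity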
Chain of G/T mismatch-specific thymine DNA glycosylase (Homo sapiens) (Q13569 whole entry): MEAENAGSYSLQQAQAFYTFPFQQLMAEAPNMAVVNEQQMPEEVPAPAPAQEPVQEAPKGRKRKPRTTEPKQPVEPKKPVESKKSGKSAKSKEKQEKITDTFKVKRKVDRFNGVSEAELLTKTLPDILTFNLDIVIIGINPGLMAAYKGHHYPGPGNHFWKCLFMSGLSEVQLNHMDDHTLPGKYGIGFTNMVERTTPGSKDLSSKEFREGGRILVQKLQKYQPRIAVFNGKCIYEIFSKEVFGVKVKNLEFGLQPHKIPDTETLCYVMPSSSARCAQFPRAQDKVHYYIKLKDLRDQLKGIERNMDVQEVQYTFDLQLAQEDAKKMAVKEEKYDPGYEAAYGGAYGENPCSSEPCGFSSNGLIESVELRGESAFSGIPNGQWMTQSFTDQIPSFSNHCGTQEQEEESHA
Description: Inhibition of TDG by quantifying inhibition of TDG-mediated cleavage and dissociation of quenched duplex DNA oligonucleotides, measured as fluorescence at 594 nm. To generate a functional strand incision and increase turn-over this assay is coupled to APE1.

[9] = biological target: Uracil-DNA glycosylase (Homo sapiens) (UniProt P13051); details: Hit No;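 further: UNG excision on a quenched double-stranded DNA oligo probe, with APE1 added for strand incision and turnover, read as fluorescence at 594 nm as strands separate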
Chain of Uracil-DNA glycosylase (Homo sapiens) (P13051 whole entry): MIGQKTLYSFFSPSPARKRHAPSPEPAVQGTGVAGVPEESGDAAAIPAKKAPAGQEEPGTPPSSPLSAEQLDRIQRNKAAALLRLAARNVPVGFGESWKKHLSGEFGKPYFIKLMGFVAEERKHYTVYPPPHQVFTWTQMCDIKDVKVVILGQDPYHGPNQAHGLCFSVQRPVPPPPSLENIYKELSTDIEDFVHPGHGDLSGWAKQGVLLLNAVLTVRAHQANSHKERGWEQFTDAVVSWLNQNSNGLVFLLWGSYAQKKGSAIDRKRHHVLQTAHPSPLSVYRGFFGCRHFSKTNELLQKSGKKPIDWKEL
Description: Inhibition of UNG by quantifying inhibition of UNG-mediated cleavage and dissociation of quenched duplex DNA oligonucleotides, measured as fluorescence at 594 nm. To generate a functional strand incision and increase turn-over this assay is coupled to APE1.

[10] = Compound Concentration 10.0 uM, Hit No
[11] = Compound Concentration 1.0 uM, Hit No
[12] = Compound Concentration 1.0 uM, Hit Yes

Chain of Methyl-CpG-binding domain protein 4 (Homo sapiens) (O95243 whole entry, the tested form may be a part): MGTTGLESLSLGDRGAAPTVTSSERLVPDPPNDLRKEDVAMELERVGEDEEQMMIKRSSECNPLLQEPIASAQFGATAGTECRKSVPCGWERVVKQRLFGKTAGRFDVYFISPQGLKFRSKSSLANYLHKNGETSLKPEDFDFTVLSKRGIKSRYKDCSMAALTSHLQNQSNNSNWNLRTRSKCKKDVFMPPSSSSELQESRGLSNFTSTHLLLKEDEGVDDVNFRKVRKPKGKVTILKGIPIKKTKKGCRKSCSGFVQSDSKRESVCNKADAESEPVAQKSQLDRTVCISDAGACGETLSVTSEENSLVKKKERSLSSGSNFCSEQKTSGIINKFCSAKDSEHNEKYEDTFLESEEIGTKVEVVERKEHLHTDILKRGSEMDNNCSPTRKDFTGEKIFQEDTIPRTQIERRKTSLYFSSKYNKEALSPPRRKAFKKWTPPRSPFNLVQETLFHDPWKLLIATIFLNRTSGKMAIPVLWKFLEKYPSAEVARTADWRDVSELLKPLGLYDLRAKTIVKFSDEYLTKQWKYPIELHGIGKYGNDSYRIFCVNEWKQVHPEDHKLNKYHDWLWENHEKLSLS

SMILES	inhibition ([1]; Compound Concentration 10.0 uM)	inhibition [2, 10]	inhibition ([3]; Compound Concentration 10.0 uM)	inhibition [4, 10]	inhibition ([5]; Compound Concentration 10.0 uM)	inhibition [6, 10]	inhibition ([7]; Compound Concentration 10.0 uM)	inhibition ([8]; Compound Concentration 10.0 uM)	inhibition ([9]; Compound Concentration 10.0 uM)	further results
CC(C)c1cc(Oc2c(Cl)cc(-n3nc(C#N)c(=O)[nH]c3=O)cc2Cl)n[nH]c1=O	53.3%	14%	-7.26%	7.67%	7.26%	28.8%	5.92%	50.8%	-0.0293%	–
CC(C)(C[C@H]1CN(S(=O)(=O)c2cccc(C(F)(F)F)c2)c2cc(-c3cc(F)cc(OC(F)F)c3)ccc2O1)C(=O)O	69%	4.92%	-6.65%	1.55%	-3.92%	–	22.1%	72.3%	3.71%	inhibition ([6]; Compound Concentration 10.0 uM, Hit Yes): 101%
CCCCCCCN(CCc1ccc(SC(C)(C)C(=O)O)cc1)C(=O)Nc1ccc(F)cc1F	74.5%	26%	-8.92%	-7.12%	5.29%	44.6%	26.9%	50.5%	3.11%	–
O=C(N[C@@H]1C2CCN(CC2)[C@H]1Cc1cccnc1)c1cc2ccccc2o1	-7.25%	-1.82%	5.2%	1.94%	27.8%	-7.23%	-7.47%	-0.849%	-1.31%	–
Cc1ccccc1Oc1cc(-n2c(=O)cc(C(F)(F)F)[nH]c2=O)c2ccccc2c1Cl	68.2%	0.715%	7.74%	-1.25%	-1.29%	50.6%	29.1%	54.4%	-2.65%	–
CCO[C@H](COc1ccc(C(F)(F)F)cc1)CSc1ccc(OCC(=O)O)c(C)c1	71.4%	16.2%	-4.99%	3.59%	-4.57%	20.8%	20.8%	59.2%	6.42%	–
O=C(Nc1cccnc1)c1cc(-c2ccnc(F)c2)ccc1OCc1ccccc1	20.7%	3.77%	-5.94%	-3.53%	4.27%	6.84%	25.3%	52.5%	2.47%	–
CCOP(=O)(OCC)C(=Cc1cc(C(C)(C)C)c(O)c(C(C)(C)C)c1)P(=O)(OCC)OCC	49.5%	14.5%	-3.17%	11.2%	12.5%	-1.84%	3.52%	58.6%	-4.58%	–
CNCc1ccccc1-c1csc([C@H](C)Nc2nc(C)nc3cc(OC)c(OC)cc23)c1	–	–	–	–	–	–	–	–	–	inhibition ([1]; Compound Concentration 1.0 uM): 58.7%; inhibition [2, 12]: 36.2%; inhibition ([3]; Compound Concentration 1.0 uM): -4.23%; inhibition [4, 12]: 26.3%; inhibition ([5]; Compound Concentration 1.0 uM): 2.66%; inhibition [6, 11]: 6.33%; inhibition ([7]; Compound Concentration 1.0 uM): 19.4%; inhibition ([8]; Compound Concentration 1.0 uM): 97.8%; inhibition ([9]; Compound Concentration 1.0 uM): 6.69%
Cc1ccc(C(=O)Nc2cccc(C(F)(F)F)c2)cc1Nc1nc(-c2cccnc2)nc2c1cnn2C	–	–	–	–	–	–	–	–	–	inhibition ([1]; Compound Concentration 1.0 uM): 14.1%; inhibition [2, 11]: 7.35%; inhibition ([3]; Compound Concentration 1.0 uM): 6.48%; inhibition [4, 11]: 3.74%; inhibition ([5]; Compound Concentration 1.0 uM): 0.785%; inhibition [6, 11]: 5.38%; inhibition ([7]; Compound Concentration 1.0 uM): 23.8%; inhibition ([8]; Compound Concentration 1.0 uM): 48.5%; inhibition ([9]; Compound Concentration 1.0 uM): 6.36%
CC(C)C[C@H](NC(=O)c1cc2ccccc2s1)C(=O)N1CCN(C(=O)[C@H](CO)NS(=O)(=O)c2ccc(Cl)cc2Cl)CC1	-8.27%	4.25%	7.86%	-3.66%	13.8%	-7.14%	17.8%	-2.2%	-1.45%	–
O=C(Nc1ccc(-n2nc(-c3cccnc3)cc2C(F)(F)F)cn1)c1ccc(-c2ccccc2)c(F)c1	–	–	–	–	–	–	–	–	–	inhibition ([1]; Compound Concentration 1.0 uM): 59.3%; inhibition [2, 11]: -4.64%; inhibition [4, 11]: 4.61%; inhibition ([5]; Compound Concentration 1.0 uM): 0.685%; inhibition [6, 11]: 18.5%; inhibition ([7]; Compound Concentration 1.0 uM): 24.9%; inhibition ([8]; Compound Concentration 1.0 uM): 56.1%; inhibition ([9]; Compound Concentration 1.0 uM): 6.15%
O=C1CCc2cc(Nc3cc(OC4CCOCC4)c([N+](=O)[O-])cc3Cl)ccc2N1	65.2%	12.7%	–	4.87%	5.94%	46.7%	24.3%	79.3%	4.09%	–
CN(C)C(=O)/C(C#N)=C/c1ccc(-c2nc3cnc4[nH]ccc4c3n2C2CCCCC2)o1	–	–	–	–	–	–	–	–	–	inhibition ([1]; Compound Concentration 1.0 uM): 2.33%; inhibition [2, 11]: -2.18%; inhibition [4, 11]: -0.572%; inhibition ([5]; Compound Concentration 1.0 uM): -5.49%; inhibition [6, 11]: 10.1%; inhibition ([7]; Compound Concentration 1.0 uM): 29.1%; inhibition ([8]; Compound Concentration 1.0 uM): 70.6%; inhibition ([9]; Compound Concentration 1.0 uM): 8.33%
CC(=O)N1CCC(c2ccc(C(=O)NC(=N)N)cc2C(F)(F)F)CC1	58.8%	0.114%	–	-0.744%	5.94%	3.38%	16.4%	47.6%	3.89%	–
O=C(O)[C@H]1[C@H](Cn2nnc3ccccc3c2=O)CC[C@@H]1C(=O)c1ccc(OCCC2CCOCC2)cc1	–	–	–	–	–	–	–	–	–	inhibition ([1]; Compound Concentration 1.0 uM): 58.9%; inhibition [2, 11]: 7.33%; inhibition [4, 11]: -9.93%; inhibition ([5]; Compound Concentration 1.0 uM): 2%; inhibition [6, 11]: 2.93%; inhibition ([7]; Compound Concentration 1.0 uM): 17%; inhibition ([8]; Compound Concentration 1.0 uM): 51.4%; inhibition ([9]; Compound Concentration 1.0 uM): -2.04%

Continued, in another order:

inhibition ([1]; Compound Concentration 10.0 uM)	inhibition [2, 10]	inhibition ([3]; Compound Concentration 10.0 uM)	inhibition [4, 10]	inhibition ([5]; Compound Concentration 10.0 uM)	inhibition [6, 10]	inhibition ([7]; Compound Concentration 10.0 uM)	inhibition ([8]; Compound Concentration 10.0 uM)	inhibition ([9]; Compound Concentration 10.0 uM)	SMILES	further results
16.6%	9.35%	2.28%	-7.12%	-7.86%	4.66%	23.4%	100%	3.52%	CNC(=O)c1ccc(Nc2ncc(C(F)(F)F)c(NCc3nccnc3N(C)S(C)(=O)=O)n2)cc1	inhibition ([1]; Compound Concentration 1.0 uM): 13.6%; inhibition ([3]; Compound Concentration 1.0 uM): 3.44%; inhibition [4, 11]: -4.88%; inhibition [6, 11]: -7.84%; inhibition ([7]; Compound Concentration 1.0 uM): 10.4%; inhibition ([8]; Compound Concentration 1.0 uM): 43.6%; inhibition ([9]; Compound Concentration 1.0 uM): -2.6%
42.6%	24.5%	-1.4%	3.25%	2.05%	31.6%	12.3%	49.5%	2.5%	CC[C@@H](Nc1c(C#N)c(-c2ccc(-c3cccc(C)c3F)cc2)nc2cnccc12)C(=O)O	–
79.3%	3.45%	-9.68%	0.531%	-3.26%	9.87%	17.6%	47.5%	6.75%	COCCc1ccc(-c2c(C)nc3c(N4CCOCC4)ccnn23)cn1	–
96.5%	9.89%	1.53%	-5.08%	-3.26%	2.54%	18.4%	48.4%	6.88%	CC(=O)Nc1ncc(CN2CCC[C@H](Cc3cc(C)nc(C)c3)C2)s1	–
-3.96%	11.4%	-4.62%	-9.73%	2.18%	6.06%	17.2%	97.5%	-6.1%	O=C(O)c1ccc2c(c1)nc(Nc1cccc(Cl)c1)c1ccncc12	–
63.5%	-6.82%	–	-1.76%	-0.63%	5%	21.1%	45.8%	7.11%	O=C(c1ccc2c(ccn2-c2ccc(F)cc2)c1)N1CC(N2CCN(C(=O)c3nccs3)CC2)C1	–

Reference: ChEMBL document CHEMBL5665443, “Enzyme Inhibitor Single Concentration assay results for EUbOPEN Chemogenomics Library” (2024)
